According to patent US9873674B2, “C-Rel inhibitors and uses thereof” (CORNELL UNIVERSITY, priority 2012, dated 2018):

How the values were obtained:
STZ-induced diabetes = experiment: Streptozotocin (STZ)-induced diabetes model; assay type: in vivo; details: 40 μg/mouse/day IP, day 0 to day 5, C57BL/6 mice; data not shown
Method: In yet another example, a Rel inhibitor compound was tested in Streptozotocin (STZ)-induced diabetes model. C57BL/6 (cRel+/+) mice were treated with low dose STZ for 5 days to induce diabetes, as indicated by glucose level above 300 mg/dl. c-Rel(−/−) mice were used as a control group. The Rel inhibitor (BA-001, 40 μg/mouse/day) or DMSO were injected IP to a group of five C57BL/6 mice for six consecutive days from day 0 to day 5. Glucose levels were determined at day 5, 7, 9, 12, 15, 19 and 27.

IFN-γ = IFN-γ expression, intracellular cytokine staining and flow cytometry in CD4+ T cells; assay type: cell-based, mouse or human; details: anti-CD3+anti-CD28 for 6 hours, % cytokine-expressing CD4+ T cells; data not shown
Method: (§1) Since autoimmune diseases are associated with elevated levels of inflammatory cytokines, it is important to identify Rel inhibitors that can inhibit the expression of inflammatory cytokines. As c-Rel regulates the expression of several cytokines including IL-2, IFN-γ, and TNF, assays for these cytokines can be used to assess the anti-inflammatory effects of Rel inhibitor analogs. To perform such experiments, mouse splenocytes or human PBMCs were stimulated with anti-CD3+anti-CD28 for 6 hours to induce cytokine expression. Compounds were added at the beginning of the culture. Cytokines (IL-2, IFN-γ, and TNF) were measured by intracellular cytokine staining and flow cytometry and the % of cytokine-expressing cells within CD4+ T cell population was enumerated. Compounds at varying doses were tested.

IL-2 [1] = experiment: IL-2 expression, intracellular cytokine staining and flow cytometry in CD4+ T cells; assay type: cell-based, mouse or human; details: anti-CD3+anti-CD28 for 6 hours, % cytokine-expressing CD4+ T cells; data not shown
Method: as §1

TNF = TNF expression, intracellular cytokine staining and flow cytometry in CD4+ T cells; assay type: cell-based, mouse or human; details: anti-CD3+anti-CD28 for 6 hours, % cytokine-expressing CD4+ T cells; data not shown
Method: as §1

RPMI8226 cells = experiment: Tumor cell cytotoxicity assay, multiple myeloma cell line RPMI8226; assay type: cell-based; details: RPMI8226 cells (active alternative pathway), 48 hours
Method: (§2) For example, the “classical” Rel pathway is crucial for the survival of L363 cell line, whereas the “alternative” pathway is important for the survival of RPMI8226 cells.
(§3) The MM and DLBCL cell lines were used to test for tumor cell cytotoxicity by the Rel inhibitor analogs. As an example, three MM cell lines were treated with a Rel inhibitor for 48 hours and cell numbers were enumerated as percentage of control group.

IL-2 [2] = experiment: IL-2 expression by ELISA in stimulated mouse splenocytes; assay type: cell-based; details: Splenocyte, mouse splenocytes stimulated with anti-CD3+anti-CD28, 0 to 20 μM, read-out: IC50 of IL2 inhibition
Method: In yet another example, IL-2 expression was quantified by ELISA analysis. In these experiments, mouse splenocytes were stimulated with anti-CD3+anti-CD28, in the presence of varying doses of Rel inhibitors (from 0 to 20 μM).

DLBCL tumor cells = experiment: DLBCL xenograft tumor model in NOD/SCID mice; assay type: in vivo, mouse
Method: Xenograft tumor models have been widely used to study human cancer. […] The experiment used non-obese diabetic (NOD)/SCID mice for testing Rel inhibitor analogs.
Male NOD/SCID mice were injected with 3-5×10^6 of DLBCL tumor cells subcutaneously in each flank area. When tumors were palpable (˜12 days after injection), the mice were randomized to receive either vehicle or test compounds corresponding to Rel inhibitors of the invention. In some experiments, DHMEQ was used as a benchmark compound. Compounds were administrated via i.p. at 12 to 24 mg/kg, three days per week for 2-3 weeks. Tumor volume was measured twice a week.

CD69 = experiment: Expression of non-c-Rel target genes; assay type: cell-based, mouse or human
L363 cells = experiment: Tumor cell cytotoxicity assay, multiple myeloma cell line L363; assay type: cell-based; details: L363 cells (active classical pathway), 48 hours
Method: as §2, §3

MM1-144 cells = experiment: Tumor cell cytotoxicity assay, multiple myeloma cell line MM1-144; assay type: cell-based; details: MM1-144 cells (use both pathways), 48 hours
Method: as §2, §3

DLBCL tumor cell lines = experiment: DLBCL cytotoxicity assay; assay type: cell-based; details: read-out: IC50 on DLBCL cytotoxicity assay
Method: as §3
The IC50 was defined as the concentration that causes 50% cell death compared with control samples. […] In summary, tumor cell lines were utilized to select for Rel inhibitors with tumor cytoxicity activities. […] Those compounds with in vitro anti-tumor activity were further tested in vivo using xenograft tumor models.

EAE = EAE model (multiple sclerosis) in C57BL/6 mice; assay type: in vivo, mouse
Method: As an example, C57BL/6 mice were immunized to induce EAE with 1) a subcutaneous injection on flanks of […] MOG38-50 peptide in 0.1 ml PBS emulsified in an equal volume of complete Freund's adjuvant containing […] mycobacterium tuberculosis H37RA, and 2) an intravenous injection of 100 ng pertussis toxin in 0.1 ml PBS. A second injection of pertussis toxin (100 ng per mouse) was given 48 hr later.
Mice were subsequently injected i.p. with 300 μg BA-039 (n=4) or vehicle (n=3) daily beginning with the first day of EAE onset. Mice were monitored daily for disease score up to 16 days.
In a second set of this experiment, treatment of the mice was stopped on the 16th day of the study and further monitored for additional 22 days. […] By contrast, the BA-039 treated group remained devoid of disease (average clinical score 1-2) (data not shown, manuscript in preparation). […] The data provide important information about treatment regimen with Rel inhibitors for multiple sclerosis patients in the future.

Question: `COc1ccc(C=C2C(=O)NC(=S)NC2=O)c(OC)c1` [BA-001, 5-(2,4-dimethoxybenzylidene)-2-thioxodihydro-pyrimidine-4,6(1H,5H)-dione] was tested. Which “resistance to STZ-induced diabetes (glucose level)” value (STZ-induced diabetes) did it give?
Answer: resistant to STZ-induced diabetes

Question: And the IC50 (IFN-γ)?
Answer: ~6 µM

Question: What about the IC50 (IL-2 [1]) of the same molecule?
Answer: ~6 µM

Question: And the IC50 (TNF)?
Answer: ~6 µM

Question: And the “growth inhibition (cell numbers as percentage of control group)” value (RPMI8226 cells)?
Answer: quite resistant

Question: What about the IC50 (IL-2 [2]) of the same molecule?
Answer: 15 µM

Question: What about the “tumor growth compared to vehicle controls” value (DLBCL tumor cells; 24 mg/Kg i.p., three days per week, NOD/SCID mice) of the same molecule?
Answer: slowed the tumor growth

Question: And the “anti-tumor potency compared with DHMEQ” value (DLBCL tumor cells; both 12 to 24 mg/kg doses, DLBCL xenograft mouse model)?
Answer: much better potency than DHMEQ

Question: What about the “inhibitory effect toward non-c-Rel target genes (e.g. CD69)” value (CD69) of the same molecule?
Answer: no inhibitory effects

Question: What about the “growth inhibition (cell numbers as percentage of control group)” value (L363 cells) of the same molecule?
Answer: dose-dependent apoptosis

Question: What about the “growth inhibition (cell numbers as percentage of control group)” value (MM1-144 cells) of the same molecule?
Answer: only partially inhibited

Question: How did the “tumor volume compared to vehicle controls” value (DLBCL tumor cells; 15 mg/kg i.p., three days per week, NOD/SCID mice) turn out when `COc1ccc(C=C2C(=O)NC(=O)NC2=O)c2ccccc12` [BA-009, 5-((4-methoxynaphthalen-1-yl)methylene) pyrimidine-2,4,6(1H,3H,5H)-trione] was run?
Answer: significantly smaller tumor volume

Question: With `COc1ccc(N2C(=O)/C(=C\c3c(OC)ccc4ccccc34)C(=O)NC2=S)cc1` [BA-030, 5-((2-methoxynaphthalen-1-yl)methylene)-1-(4-methoxyphenyl)-2-thioxodihydro-pyrimidine-4,6(1H,5H)-dione] as the molecule, how does the IC50 (IL-2 [2]) read?
Answer: 0.4 µM

Question: And the IC50 (DLBCL tumor cell lines)?
Answer: 4 µM

Question: For `COc1cc(OC)c2ccccc2c1C=C1C(=O)NC(=S)NC1=O` [BA-039, 5-((2,4-dimethoxynaphthalen-1-yl)methylene)-2-thioxodihydropyrimidine-4,6(1H,5H)-dione], which disease score (EAE; 300 μg i.p. daily from first day of EAE onset, up to 16 days, reduced from 2, vehicle rises 2 to 5) is on record?
Answer: 1

Question: What about the average clinical score (EAE; 22 days after treatment stopped on 16th day, control group score 5) of the same molecule?
Answer: 1-2
